# Results: article PMC6658998, “Pharmacological characterization of the seven human NOX isoforms and their inhibitors” (Redox Biology, 2019)
# Columns and labels:
# [1] = Cell-free CBA assay with 10 μM H2O2 (H2O2 scavenging); settings: 10 μM H2O2, 800 μM CBA
# human NOX1 = biological target: T1, human NOX1 (Homo sapiens, UniProt Q9Y5S8); assay: Amplex Red/HRP H2O2 detection in NOX1-expressing CHO cells; format: cell-based; settings: PMA 0.1 μM, read-out: IC50 NOX1 (CHO) AR
# T1 construct: expressed in transfected cells; host or cells: CHO
# T1 sequence (Q9Y5S8 1-564): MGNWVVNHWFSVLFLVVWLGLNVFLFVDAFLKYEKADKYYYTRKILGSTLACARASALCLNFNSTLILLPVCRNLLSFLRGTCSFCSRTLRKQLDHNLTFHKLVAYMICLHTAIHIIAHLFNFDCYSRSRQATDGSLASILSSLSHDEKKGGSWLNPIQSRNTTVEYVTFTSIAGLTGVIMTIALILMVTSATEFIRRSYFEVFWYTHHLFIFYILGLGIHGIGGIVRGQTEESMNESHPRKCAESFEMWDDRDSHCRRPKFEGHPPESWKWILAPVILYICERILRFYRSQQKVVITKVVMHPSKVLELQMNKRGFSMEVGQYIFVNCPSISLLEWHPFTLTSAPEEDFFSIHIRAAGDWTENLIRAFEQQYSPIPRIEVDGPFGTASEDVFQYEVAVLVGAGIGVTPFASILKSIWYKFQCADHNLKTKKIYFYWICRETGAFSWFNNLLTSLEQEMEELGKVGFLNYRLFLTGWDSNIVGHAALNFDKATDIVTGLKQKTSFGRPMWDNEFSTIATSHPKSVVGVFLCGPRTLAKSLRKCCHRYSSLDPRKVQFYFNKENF
# T1 sequence (P13498 1-195 partner): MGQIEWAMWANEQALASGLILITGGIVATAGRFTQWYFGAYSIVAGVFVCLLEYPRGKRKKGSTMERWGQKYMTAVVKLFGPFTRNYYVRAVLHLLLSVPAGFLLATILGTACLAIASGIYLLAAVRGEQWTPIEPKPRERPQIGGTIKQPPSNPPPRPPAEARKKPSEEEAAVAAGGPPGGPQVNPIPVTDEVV
# in vitro = settings: Chinese hamster
# NOX5 = biological target: T2, NOX5 (Homo sapiens, UniProt Q96PH1); assay: NOX5 activity in purified membranes of HEK293 cells expressing NOX5 (WST-1, CBA); format: biochemical; settings: for Inhibitory activity in NOX5 membrane assay: WST-1 / CBA, concentration not given
# T2 construct: expressed in transfected cells
# T2 sequence (Q96PH1 19-737 isoform Q96PH1-3 limits assumed): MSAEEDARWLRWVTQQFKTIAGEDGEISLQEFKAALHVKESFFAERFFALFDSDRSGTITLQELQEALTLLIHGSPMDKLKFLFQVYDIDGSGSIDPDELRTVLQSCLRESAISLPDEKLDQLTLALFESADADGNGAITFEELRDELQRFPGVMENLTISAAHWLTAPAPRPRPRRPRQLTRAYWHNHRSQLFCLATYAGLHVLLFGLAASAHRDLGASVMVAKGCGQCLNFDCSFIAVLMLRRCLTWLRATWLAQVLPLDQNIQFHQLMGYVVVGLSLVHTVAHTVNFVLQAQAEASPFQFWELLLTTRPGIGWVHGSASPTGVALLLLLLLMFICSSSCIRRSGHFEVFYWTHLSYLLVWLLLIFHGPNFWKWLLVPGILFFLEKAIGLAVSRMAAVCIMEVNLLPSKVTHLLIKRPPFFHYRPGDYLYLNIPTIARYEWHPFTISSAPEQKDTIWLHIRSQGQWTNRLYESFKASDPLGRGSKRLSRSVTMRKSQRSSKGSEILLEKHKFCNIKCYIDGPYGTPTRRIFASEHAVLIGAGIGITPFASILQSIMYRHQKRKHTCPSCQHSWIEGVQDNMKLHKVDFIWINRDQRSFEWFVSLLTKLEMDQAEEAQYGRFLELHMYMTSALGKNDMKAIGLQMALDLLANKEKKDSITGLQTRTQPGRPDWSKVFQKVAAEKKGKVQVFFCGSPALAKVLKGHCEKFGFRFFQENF
# Method: PLB-985 (40 dishes 150 cm^2) were grown in suspension and differentiated by addition of 1.25% DMSO for 72 h. HEK293 cells expressing NOX5 (40 dishes 150 cm^2) were amplified until confluence and detached using trypsin-EDTA for 5 min followed by addition of 2 vol of pre-warmed complete growth media to inactivate trypsin. Collected cells were centrifuged at 4000 ×g for 10 min. Cells were washed with PBS and centrifuged at 1500 ×g for 10 min. The supernatant was discarded and the pellet was placed at −80 °C for at least 30 min. […] Samples were sonicated two times for 25 s (level 7, Branson Sonifier 250). Cell debris were removed by centrifugation at 800 ×g for 10 min at 4 °C. The supernatant was laid on a sucrose gradient consisting of a bottom layer of 1 mL 40% sucrose and an upper layer of 1 mL 17% sucrose. Ultracentrifugation was performed at 150,000 ×g in SW60 rotor for 30 min at 4 °C. Following separation, the upper cytosolic fraction was discarded and the cloudy membrane fraction was collected. Protein concentration was determined with Bradford reagent using BSA as a standard. Small aliquots were kept at −80 °C.
# NOX2 containing membranes were used at 10 μg/mL of proteins in a reaction mixture containing 90 nM recombinant RacQ61L, 45 nM recombinant p67Np47 N chimeric protein (consisting of a fusion of the N-termini of human p67phox [residues 1–210] and p47phox [residues 1–286]), 90 μM SDS, 1 μM FAD-Na2 and 1 mM WST-1 or 800 μM CBA in PBS. The reaction mixture was dispensed in 96-well plates (transparent for WST-1 absorbance, black for CBA fluorescence) at 80 μL/well and the plate was incubated for 5 min at 37 °C. The reaction was initiated by addition of 20 μL/well NADPH at final concentration 100 μM. NOX5 containing membranes were used at 20 μg/mL of proteins in a reaction mixture containing 50 mM HEPES pH 7.4, 1 mM NTA, 1 mM EDTA, 1 mM BAPTA, 1 mM MgCl2, 5.5 μM phosphatidic acid, 1 μM FAD, 700 μM CaCl2 and 1 mM WST-1 or 800 μM CBA in Milli-Q H2O. The reaction mixture was dispensed in 96-well plates (transparent for absorbance, black for fluorescence) at 80 μL/well and 20 μL/well of NADPH at final concentration of 200 μM were added to initiate the reaction.
# Reported NOX inhibitors were added in 96 well plates at a single concentration as indicated to which mix containing membrane fractions and all components of the NOX2 or NOX5 membrane assays were added except NADPH. After 2–3 min incubation, 200 μM NADPH was added to start the reaction.
IC50 (human NOX1) [µM],SMILES,Effect on CBA signal (direct scavenging of H2O2) ([1]; at high concentration),CC50 at 1 h (in vitro) [µM],Inhibitory activity in NOX5 membrane assay (NOX5),Effect on CBA signal (direct scavenging of H2O2) ([1]; serial dilutions),CC50 at 1 h (in vitro; CHO cells) [µM],Inhibition of NOX5-dependent signal in membranes (NOX5; compound 50 μM),Inhibitory activity in NOX5 membrane assay (NOX5; listed as VAS280)
> 50,"COc1cc(C(C)=O)ccc1O [Apocynin, apocynin]",inhibited the CBA signal,> 50,,,,,
,"c1ccc2c(c1)[I+]c1ccccc1-2 [DPI, diphenylene iodonium chloride]",,> 50,potently inhibited,,,,
32.7,"COc1cc(C(C)=O)cc(-c2cc(C(C)=O)cc(OC)c2O)c1O [Diapocynin, diapocynin]",,,,inactive,> 50,,
9.2,Cc1c2c(=O)n(-c3ccccc3Cl)[nH]c2cc(=O)n1Cc1ccccn1 [GKT136901],,,,not scavenging H2O2,> 50,,
,"c1ccc(Cn2nnc3c(Sc4nc5ccccc5o4)ncnc32)cc1 [VAS2870, 3-benzyl-7-(2-benzoxazolyl)thio-1,2,3-triazolo[4,5-d]pyrimidine]",,,no inhibitory activity,,,,some level of inhibition

SMILES,IC50 (human NOX1) [µM],Effect on CBA signal (direct scavenging of H2O2) ([1]; at high concentration),CC50 at 1 h (in vitro) [µM],Inhibitory activity in NOX5 membrane assay (NOX5),Effect on CBA signal (direct scavenging of H2O2) ([1]; serial dilutions),CC50 at 1 h (in vitro; CHO cells) [µM],Inhibition of NOX5-dependent signal in membranes (NOX5; compound 50 μM),Inhibitory activity in NOX5 membrane assay (NOX5; listed as VAS280)
"O=c1c2ccccc2[se]n1-c1ccccc1 [Ebselen, ebselen]",2.9,,,,inhibited the CBA signal,3.3,inhibited,
